Data as given in paper PMC11678824 (2024).

What was measured:
[1] = test system: MYC (DNA, G4) TGAGGGTGGGTAGGGTGGGTAA; experiment: fluorescent intercalator displacement (FID); details: 100 mM K+ (KCl) plus potassium phosphate; 20 mM potassium phosphate, pH 6.8; thiazole orange 3.5 µM displaced; DNA 1 µM
[2] = test system: ds26 (DNA, duplex) CAATCGGATCGAATTCGATCCGATTG; experiment: fluorescent intercalator displacement (FID); details: 100 mM K+ (KCl) plus potassium phosphate; 20 mM potassium phosphate, pH 6.8; thiazole orange 3.5 µM displaced; DNA 1 µM
[3] = test system: G4 Tel (DNA, G4) AGGGTTAGGGTTAGGGTTAGGG; experiment: fluorescent intercalator displacement (FID); details: 100 mM K+ (KCl) plus potassium phosphate; 20 mM potassium phosphate, pH 6.8; thiazole orange 3.5 µM displaced; DNA 1 µM
[4] = test system: ds26 (DNA, duplex) CAATCGGATCGAATTCGATCCGATTG; experiment: fluorescence titration (ligand emission); details: 100 mM K+ (KCl) plus potassium phosphate, 20 mM potassium phosphate, pH 6.8, ligand 2 µM, apparent
[5] = test system: KRAS (DNA, G4) AGGGCGGTGTGGGAATAGGGAA; experiment: fluorescent intercalator displacement (FID); details: 100 mM K+ (KCl) plus potassium phosphate; 20 mM potassium phosphate, pH 6.8; thiazole orange 3.5 µM displaced; DNA 1 µM
[6] = test system: G4 Tel (DNA, G4) AGGGTTAGGGTTAGGGTTAGGG; experiment: fluorescence titration (ligand emission); details: 100 mM K+ (KCl) plus potassium phosphate, 20 mM potassium phosphate, pH 6.8, ligand 2 µM, apparent
[7] = test system: KRAS (DNA, G4) AGGGCGGTGTGGGAATAGGGAA; experiment: fluorescence titration (ligand emission); details: 100 mM K+ (KCl) plus potassium phosphate; 20 mM potassium phosphate, pH 6.8; ligand 2 µM; apparent; Hill n = 1.59
[8] = test system: MYC (DNA, G4) TGAGGGTGGGTAGGGTGGGTAA; experiment: fluorescence titration (ligand emission); details: 100 mM K+ (KCl) plus potassium phosphate; 20 mM potassium phosphate, pH 6.8; ligand 2 µM; apparent; Hill n = 3.85
[9] = test system: KRAS (DNA, G4) AGGGCGGTGTGGGAATAGGGAA; experiment: UV-Vis titration (Soret red shift, hypochromism); details: 100 mM K+ (KCl) plus potassium phosphate; 20 mM potassium phosphate, pH 6.8; ligand 2 µM; up to 2.5 equiv. DNA
[10] = test system: ds26 (DNA, duplex) CAATCGGATCGAATTCGATCCGATTG; experiment: UV-Vis titration (Soret red shift, hypochromism); details: 100 mM K+ (KCl) plus potassium phosphate; 20 mM potassium phosphate, pH 6.8; ligand 2 µM; up to 2.5 equiv. DNA
[11] = test system: MYC (DNA, G4) TGAGGGTGGGTAGGGTGGGTAA; experiment: UV-Vis titration (Soret red shift, hypochromism); details: 100 mM K+ (KCl) plus potassium phosphate; 20 mM potassium phosphate, pH 6.8; ligand 2 µM; up to 2.5 equiv. DNA
[12] = test system: G4 Tel (DNA, G4) AGGGTTAGGGTTAGGGTTAGGG; experiment: UV-Vis titration (Soret red shift, hypochromism); details: 100 mM K+ (KCl) plus potassium phosphate; 20 mM potassium phosphate, pH 6.8; ligand 2 µM; up to 2.5 equiv. DNA

| DC50 [1] | DC50 [2] | DC50 [3] | KD ([4]; Hill n = 0.49) | DC50 [5] | KD ([6]; Hill n = 1.0) | KD ([4]; Hill n = 0.67) | KD ([6]; Hill n = 1.35) | KD [7] | KD [8] | binding [9] | binding [10] | binding [11] | binding [12] | SMILES |
| --- | --- | --- | --- | --- | --- | --- | --- | --- | --- | --- | --- | --- | --- | --- |
| 180 ± 30 nM | 2000 ± 370 nM | 1120 ± 270 nM | 10 ± 7 nM | 280 ± 10 nM | 630 ± 290 nM | – | – | – | – | – | – | – | – | C[n+]1ccc(-c2c3nc(c(-c4cc[n+](C)cc4)c4ccc([n-]4)c(-c4cc[n+](C)cc4)c4nc(c(-c5cc[n+](C)cc5)c5ccc2[n-]5)C=C4)C=C3)cc1.[Ag+2] |
| 200 ± 20 nM | 650 ± 40 nM | 340 ± 20 nM | – | 370 ± 10 nM | – | 2690 ± 20 nM | 1300 ± 20 nM | 2720 ± 420 nM | 1320 ± 130 nM | – | – | – | – | C[n+]1ccc(-c2c3nc(c(-c4cc[n+](C)cc4)c4ccc([n-]4)c(-c4cc[n+](C)cc4)c4nc(c(-c5cc[n+](C)cc5)c5ccc2[n-]5)C=C4)C=C3)cc1.[Zn+2] |
| – | – | – | – | – | – | – | – | – | – | yes | yes | yes | yes | C[n+]1ccc(-c2c3nc(c(-c4cc[n+](C)cc4)c4ccc([nH]4)c(-c4cc[n+](C)cc4)c4nc(c(-c5cc[n+](C)cc5)c5ccc2[nH]5)C=C4)C=C3)cc1 |
